We go through 10 molecules from patent US20170081338A1, “SUBSTITUTED HETEROARYL COMPOUNDS AND METHODS OF USE” (Sunshine Lake Pharma Co., Ltd., priority 2015, published 2017).

The nature of series [1]: Pharmacokinetics after intravenous and oral administration in rats. The format is in vivo. Particulars: for Clearance (CL) after iv dosing / AUC(0-t) / half-life / Vd: dose 1 mg/kg, iv dosing; for F: oral bioavailability; for AUC(0-t) / half-life / Vd: rat, plasma; for Vd: read-out: Vss. As for the experimental part: The LC/MS/MS system used in the analysis consists of an Agilent 1200 Series vacuum degasser, binary pump, well-plate autosampler, thermostatted column compartment, the Agilent G6430 Triple Quadrupole Mass Spectrometer with an electrosprayionization (ESI) source. Quantitative analysis was carried out using MRM mode. The parameters for MRM transitions are in the Table A.
An Agilent XDB-C18, 2.1×30 mm, 3.5 μM column was used for the analysis. 5 μL of the samples were injected. Analysis condition: The mobile phase was 0.1% formic acid in water (A) and 0.1% formic acid in methanol (B). The flow rate was 0.4 mL/min. And the gradient of Mobile phase was in the Table B.
Alternatively, an Agilent 6330 series LC/MS/MS spectrometer equipped with G1312A binary pumps, a G1367A autosampler and a G1314C UV detector were used in the analysis. An ESI source was used on the LC/MS/MS spectrometer. The analysis was done in positive ion mode as appropriate and the MRM transition for each analyte was optimized using standard solution. A Capcell MP-C18 100×4.6 mm I.D., […] column (Phenomenex, Torrance, Calif., USA) was used during the analysis. The mobile phase was 5 mM ammonia acetate, 0.1% MeOH in water (A): 5 mM ammonia acetate, 0.1% MeOH in acetonitrile (B) (70/30, v/v). The flow rate was 0.6 mL/min. Column was maintained at ambient temperature. 20 μL of the samples were injected.
The compounds disclosed herein are assessed in pharmacokinetic studies in mice, rats, dogs or monkeys. The compounds are administered as a water solution, 2% HPMC+1% TWEEN®80 in water solution, 5% DMSO+5% solutol in saline, 4% MC suspension or capsule. For the intravenous administration, the animals are generally given at 0.5, 1 or 2 mg/kg dose. For the oral (p.o.) dosing, mice and rats are generally given 0.5, 1, 5 or 10 mg/kg dose, and dogs and monkeys are generally given 10 mg/kg dose. The blood samples (0.3 mL) are drawn at 0.25, 0.5, 1.0, 2.0, 3.0, 4.0, 6.0, 8.0, 12 and 24 h time points or 0.083, 0.25, 0.5, 1.0, 2.0, 4.0, 6.0, 8.0 and 24 h time points and centrifuged at 3,000 or 4000 rpm for 2 to 10 min. The plasma solutions are collected, and stored at −20° C. or −70° C. until analyzed by LC/MS/MS as described above.

Series [2] can be described thus: Compound stability in rat liver microsomes. The format is in vitro ADME. The following applies: pH 7.4; for half-life at 5 μM: rat liver microsomes 0.5 mg protein/mL, compound 5 μM, NADPH, 37° C., read-out: Rat T1/2; for CLint scaled at 5 μM: rat liver microsomes, in vivo CLint extrapolated. As for the experimental part:
(§1) Human or rat liver microsomes incubations were conducted in duplicate in polypropylene tubes. The typical incubation mixtures consisted of human or rat liver microsomes (0.5 mg protein/mL), compounds of interest (5 μM) and NADPH (1.0 mM) in a total volume of 200 μL potassium phosphate buffer (PBS, 100 mM, pH 7.4). Compounds were dissolved in DMSO and diluted with PBS such that the final concentration of DMSO was 0.05%. The enzymatic reactions were commenced with the addition of protein after a 3-min preincubation and incubated in a water bath open to the air at 37° C. Reactions were terminated at various time points (0, 5, 10, 15, 30, 60 min) by adding equal volume of ice-cold acetonitrile. The samples were stored at −80° C. until LC/MS/MS assays.
(§2) The concentrations of compounds in the incubation mixtures of human or rat liver microsomes were determined by a LC/MS/MS method. The ranges of the linearity in the concentration range were determined for each tested compounds.
(§3) A parallel incubation was performed using denatured microsomes as the negative control, and reactions were terminated at various time points (0, 15, 60 min) after incubation at 37° C.
(§4) Dextromethorphan (70 μM) was selected as the positive control, and reactions were terminated at various time points (0, 5, 10, 15, 30, 60 min) after incubation at 37° C. Both positive and negative control samples were included in each assay to ensure the integrity of the microsomal incubation system.
(§5) The concentrations of compounds in human or rat liver microsome incubations were plotted as a percentage of the relevant zero time point control for each reaction. The in vivo CLint were extrapolated (ref.: Naritomi, Y.; Terashita, S.; Kimura, S.; Suzuki, A.; Kagayama, A.; and Sugiyama, Y.; Prediction of human hepatic clearance from in vivo animal experiments and in vitro metabolic studies with liver microsomes from animals and humans. Drug Metab. Dispos., 2001, 29: 1316-1324).

A short description of series [3]: Compound stability in human liver microsomes. It is filed as in vitro ADME. The following applies: pH 7.4; for half-life at 5 μM: human liver microsomes 0.5 mg protein/mL, compound 5 μM, NADPH, 37° C., read-out: Human T1/2; for CLint scaled at 5 μM: human liver microsomes, in vivo CLint extrapolated. As for the experimental part: as §1, §2, §3, §4, §5

The structures appear in SMILES notation.

By AUC(0-t) is commonly meant the area under the concentration-time curve up to a stated or last time point. Broadly, the CLint scaled is the capacity of the preparation to metabolise the compound, expressed as a volume cleared per time. For `CC(CS(=O)(=O)N[C@H]1COC2C1OC[C@H]2Nc1nc(Nc2cnn(C)c2)ncc1Cl)C(F)(F)F` (stereo partly drawn) [Ex. 40, N-((3S,6R)-6-((5-chloro-2-((1-methyl-1H-pyrazol-4-yl)amino)pyrimidin-4-yl)amino)hexahydrofuro[3,2-b]furan-3-yl)-3,33-trifluoro-2-methylpropane-1-sulfonamide], in series [1], the “Clearance (CL) after iv dosing” value was 30.3 mL/min/kg, the F worked out at 77.3%, the exposure AUC(0-t) is 533 ng·h/mL and the half-life was 31.2 min. Moreover, the Vd in series [1] was found to be 1.22 L/kg. Besides, in series [2], the half-life at 5 μM came to 19.7 min and the CLint scaled at 5 μM was 126 mL/min/kg. Further, in series [3], the half-life at 5 μM was 25.2 min and the intrinsic metabolic clearance (CLint scaled) at 5 μM is 69 mL/min/kg.

Take `Cn1cc(Nc2ncc(Cl)c(N[C@@H]3COC4C3OC[C@@H]4Nc3ccc(C#N)cn3)n2)cn1` (stereo partly drawn) [Ex. 23, 6-(((3S,6R)-6-((5-chloro-2-((1-methyl-1H-pyrazol-4-yl)amino)pyrimidin-4-yl)amino)hexahydrofuro[3,2-b]furan-3-yl)amino)nicotinonitrile]: in series [1], the “Clearance (CL) after iv dosing” value turned out to be 7 mL/min/kg, the F was determined as 67.5%, the AUC(0-t) was found to be 2440 ng·h/mL and the half-life was 27 min. In addition, the Vd in series [1] came out at 0.26 L/kg. In addition, in series [2], the half-life at 5 μM was determined as 26.6 min and the CLint scaled at 5 μM is 93.4 mL/min/kg. Also, in series [3], the half-life at 5 μM came out at 60 min and the CLint scaled at 5 μM is 29 mL/min/kg.

Turning to `CC(O)CS(=O)(=O)N[C@H]1COC2C1OC[C@H]2Nc1nc(Nc2cnn(C)c2)ncc1Cl` (stereo partly drawn) [Ex. 44, N-((3S,6R)-6-((5-chloro-2-((1-methyl-1H-pyrazol-4-yl)amino)pyrimidin-4-yl)amino)hexahydrofuro[3,2-b]furan-3-yl)-2-hydroxypropane-1-sulfonamide], in series [2], the half-life at 5 μM was determined as 310 min and the CLint scaled at 5 μM was 8 mL/min/kg. For the same molecule, in series [3], the half-life at 5 μM turned out to be 837 min and the CLint scaled at 5 μM was 2.1 mL/min/kg.

As for `CC(C)=CS(=O)(=O)N[C@H]1COC2C1OC[C@H]2Nc1nc(Nc2cnn(C)c2)ncc1Cl` (stereo partly drawn) [Ex. 43, N-((3S,6R)-6-((5-chloro-2-((1-methyl-1H-pyrazol-4-yl)amino)pyrimidin-4-yl)amino)hexahydrofuro[3,2-b]furan-3-yl)-2-methylprop-1-ene-1-sulfonamide], in series [1], the “Clearance (CL) after iv dosing” value is 35 mL/min/kg, the F is listed as 57.1%, the AUC(0-t) worked out at 479 ng·h/mL and the half-life was 47.4 min. For the same molecule, the Vd in series [1] was 1.75 L/kg. In series [2], the half-life at 5 μM turned out to be 25.7 min and the CLint scaled at 5 μM is 96.5 mL/min/kg. For the same molecule, in series [3], the half-life at 5 μM amounted to 22.9 min and the CLint scaled at 5 μM is 76 mL/min/kg.

Consider `CNC(=O)N[C@H]1COC2C1OC[C@H]2Nc1nc(Nc2cnn(C)c2)ncc1Cl` (stereo partly drawn) [Ex. 1, 1-((3S,6R)-6-((5-chloro-2-((1-methyl-1H-pyrazol-4-yl)amino)pyrimidin-4-yl)amino)hexahydrofuro[3,2-b]furan-3-yl)-3-methylurea], for which, in series [1], the “Clearance (CL) after iv dosing” value is 42 mL/min/kg, the F was 52.4%, the AUC(0-t) worked out at 398 ng·h/mL and the half-life is 13.8 min. Besides, in series [1], the Vd turned out to be 0.55 L/kg. In series [2], the half-life at 5 μM came to 116 min and the CLint scaled at 5 μM was 21.4 mL/min/kg.

For the molecule `Cn1cc(Nc2ncc(Cl)c(N[C@@H]3COC4C3OC[C@@H]4NS(=O)(=O)CC3CC(F)C3)n2)cn1` (stereo partly drawn) [Ex. 39, N-((3S,6R)-6-((5-chloro-2-((1-methyl-1H-pyrazol-4-yl)amino)pyrimidin-4-yl)amino)hexahydrofuro[3,2-b]furan-3-yl)-1-(3-fluorocyclobutyl)methanesulfonamide], in series [1], the “Clearance (CL) after iv dosing” value came out at 35.8 mL/min/kg, the F amounted to 48.7%, the AUC(0-t) amounted to 464 ng·h/mL and the half-life was 33 min. For the same molecule, in series [1], the Vd stood at 1.07 L/kg.

As to `Cn1cc(Nc2ncc(Cl)c(N[C@@H]3COC4C3OC[C@@H]4NS(=O)(=O)c3ccc(F)cc3)n2)cn1` (stereo partly drawn) [Ex. 8, N-((3S,6R)-6-((5-chloro-2-((1-methyl-1H-pyrazol-4-yl)amino)pyrimidin-4-yl)amino)hexahydrofuro[3,2-b]furan-3-yl)-4-fluorobenzenesulfonamide], in series [1], the “Clearance (CL) after iv dosing” value came out at 38 mL/min/kg, the F was 90.1%, the AUC(0-t) worked out at 452 ng·h/mL and the half-life was 37.2 min. Moreover, the Vd in series [1] is 1.87 L/kg. Further, in series [2], the half-life at 5 μM is 68 min and the CLint scaled at 5 μM was 36.5 mL/min/kg. Moreover, in series [3], the half-life at 5 μM is 57.3 min and the CLint scaled at 5 μM is 30.4 mL/min/kg.

On to `Cn1cc(Nc2ncc(Cl)c(N[C@@H]3COC4C3OC[C@@H]4N3CCOC3=O)n2)cn1` (stereo partly drawn) [Ex. 9, 3-((3S,6R)-6-((5-chloro-2-((1-methyl-1H-pyrazol-4-yl)amino)pyrimidin-4-yl)amino)hexahydrofuro[3,2-b]furan-3-yl)oxazolidin-2-one], for which, in series [1], the F stood at 64.6%, the AUC(0-t) stood at 792 ng·h/mL, the half-life was 636 min and the Vd is 27.1 L/kg.

For the molecule `Cn1cc(Nc2ncc(Cl)c(N[C@@H]3COC4C3OC[C@@H]4NS(=O)(=O)CC(C)(C)O)n2)cn1` (stereo partly drawn) [Ex. 41, N-((3S,6R)-6-((5-chloro-2-((1-methyl-1H-pyrazol-4-yl)amino)pyrimidin-4-yl)amino)hexahydrofuro[3,2-b]furan-3-yl)-2-hydroxy-2-methylpropane-1-sulfonamide], in series [1], the “Clearance (CL) after iv dosing” value turned out to be 57.3 mL/min/kg, the F amounted to 37.0%, the AUC(0-t) came to 290 ng·h/mL and the half-life was 49.2 min. Also, the Vd in series [1] stood at 1.64 L/kg. Further, in series [2], the half-life at 5 μM amounted to 78.7 min and the CLint scaled at 5 μM was 31.5 mL/min/kg. Besides, in series [3], the half-life at 5 μM turned out to be 102 min and the CLint scaled at 5 μM was 17 mL/min/kg.

As to `O=S(=O)(CC1CC1)N[C@H]1COC2C1OC[C@H]2Nc1nc(Nc2cnn(C3CCNCC3)c2)ncc1Cl` (stereo partly drawn) [Ex. 35, N-((3S,6R)-6-((5-chloro-2-((1-(piperidin-4-yl)-1H-pyrazol-4-yl)amino)pyrimidin-4-yl)amino)hexahydrofuro[3,2-b]furan-3-yl)-1-cyclopropylmethanesulfonamide], the half-life at 5 μM in series [2] came to 441 min; in series [3] it was 51.1 min. Also, the values for the CLint scaled at 5 μM in series [2] and in series [3] were 5.6 mL/min/kg and 34 mL/min/kg, respectively.
